Test results: patent publication EP2070549A1, “THERAPEUTIC AGENT FOR ACCELERATION OF SPINAL NERVE REPAIR COMPRISING DESACYL GHRELIN OR DERIVATIVE THEREOF AS ACTIVE INGREDIENT” (University of Miyazaki, priority 2006, dated 2008)
One block for each substance: values may come before it.

Assays:
[1] = biological target: des-acyl ghrelin specific binding sites in membrane fractions of rat fetal spinal cord (rat); assay: saturation radioligand binding, rat fetal spinal cord membranes, Scatchard/GraphPAD Prism
[2] = biological target: des-acyl ghrelin specific binding sites in membrane fractions of rat fetal spinal cord (rat); assay: competition with 0.1 nM [125I]-des-acyl ghrelin on rat fetal spinal cord membranes
[3] = system: des-acyl ghrelin specific binding sites in the membrane fractions of fetal spinal cord; assay: Binding of [125I]-labelled des-acyl ghrelin to membrane fractions of fetal spinal cord (saturation and competition); set-up: species or system rat; settings: competition with 0.1 nM labeled des-acyl ghrelin
Procedure: For instance, the identity of a substance that acts on a des-acyl ghrelin specific binding site, namely, the identity of a substance having binding activity for a des-acyl ghrelin specific binding site can be determined, as will be described later in Example 1, by first preparing samples from a tissue of interest (e.g., membrane fractions prepared from an extracted spinal cord tissue), then incubating the sample in the presence of a test substance, with or without an added radioactive ligand such as [^125I]-labeled des-acyl ghrelin, measuring the radioactivity of the samples, and analyzing the values obtained. For analysis of the values, techniques known to skilled artisans may be employed, as exemplified by the method of Scatchard and a program such as GraphPAD Prism 4 program, which are applied to calculate the maximum number of binding sites (Bmax) and the dissociation constant (Kd). The des-acyl ghrelin specific binding sites are yet to be characterized specifically but one place of their occurrence is in rat spinal cord cells, in particular, on rat spinal cord cell membranes. […]
With [^125I]-labelled des-acyl ghrelin used as a radioactive ligand, the binding of des-acyl ghrelin to the tissue membranes of fetal spinal cord was studied. […] The radioactivity of the membranes on the filters was measured with a gamma counter. […]

[4] = system: cultured fetal spinal neuronal cells; assay: BrdU incorporation into cultured fetal spinal neuronal cells, Cell Proliferation ELISA (Example 2); assay type: cell-based, rat; settings: 0.03-300 nM tested, 12 hours, then BrdU 6 hours; FIG. 2A
Procedure: • (1) Embryos were extracted from a pregnant Wistar rat at day 17 under anesthesia. Spinal cords were collected from these embryos and subjected to papain digestion in Hank's balanced salt solution; as a result of subsequent mechanical separation by pipetting, a dispersion of fetal spinal neurons was obtained. […] These dispersed cells were suspended in a DMEM medium containing NaHCO3, 5% fetal bovine serum, penicillin (100 U/mL) and streptomycin (100 µg/mL), followed by plating onto laminin-coated 96-well multi-plates at 10^5 cells per well. After incubation for 4 days, des-acyl ghrelin (0.03-300 nM) was added to the culture and incubation was conducted for 12 hours; then, 5-bromo-2'-deoxyuridine (BrdU) ([…]) was added and incubation was conducted for an additional 6 hours; then, the des-acyl ghrelin was investigated for its action on BrdU incorporation.
• (2) After the end of the above incubation, the cells were recovered and using Cell Proliferation ELISA Kit (Roche Diagnostic GmbH, Mannheim, Germany), the amount of BrdU incorporation into the fetal spinal neuronal cells was measured to investigate the action for proliferating the spinal neuronal cells.

[5] = system: cultured fetal spinal neuronal cells; assay: BrdU positive cells by anti-BrdU immunostaining in cultured fetal spinal neuronal cells (Example 2); assay type: cell-based, rat; settings: compared to physiological saline, FIG. 2B, 2C
Procedure: • (1) Embryos were extracted from a pregnant Wistar rat at day 17 under anesthesia. Spinal cords were collected from these embryos and subjected to papain digestion in Hank's balanced salt solution; as a result of subsequent mechanical separation by pipetting, a dispersion of fetal spinal neurons was obtained. […] These dispersed cells were suspended in a DMEM medium containing NaHCO3, 5% fetal bovine serum, penicillin (100 U/mL) and streptomycin (100 µg/mL), followed by plating onto laminin-coated 96-well multi-plates at 10^5 cells per well. […]
• (3) After the end of the above incubation (1), the cells were fixed with methanol and glacial acetic acid, had their DNA denatured with 2 N HCl; thereafter, the BrdU incorporated into the cells was measured by detecting the BrdU positive cells using a rat anti-BrdU monoclonal antibody (1:1000, Abcam, Cambridge, UK) as a primary antibody, and also using Cy™ 3-conjugated donkey anti-rat IgG polyclonal antibody (1:1000, Jackson ImmunoResearch Laboratories, Inc., PA, USA) as a secondary antibody, in order to investigate the action for proliferating spinal cord cells. […]

[6] = system: cultured spinal neuronal cells; assay: BrdU incorporation into cultured spinal neuronal cells, Cell Proliferation ELISA (Example 3); assay type: cell-based, rat; settings: for BrdU incorporation into the cells, Mean: n 6, Control = 100.0
Excerpt: Embryos were extracted from a pregnant Wistar rat at day 16 by opening the abdomen under anesthesia. Spinal cords were collected from these embryos and subjected to papain digestion in Hank's balanced salt solution; as a result of subsequent mechanical separation by pipetting, a dispersion of fetal spinal nerve cells was obtained. After being filtered and centrifuged, the dispersed cells were suspended in a DMEM medium containing NaHCO3, 5% fetal bovine serum, penicillin (100 U/mL) and streptomycin (100 µg/mL), followed by plating onto laminin-coated 96-well multi-plates at 10^5 cells per well. After incubation for 4 days, 5-bromo-2'-deoxyuridine (BrdU) (10 µM) was added and incubation was conducted for 6 hours; further, rat des-acyl ghrelin, des-acyl ghrelin(1-5)-NH2 (GSSFL-NH2, SEQ ID NO:22), des-acyl ghrelin(1-7)-NH2 (GSSFLSP-NH2, SEQ ID NO:23) or des-acyl ghrelin(1-15)-NH2 (GSSFLSPEHQRVQQR-NH2, SEQ ID NO:24) was added in amounts of 0.03 - 3 nM and incubation was conducted for 12 hours before investigating the action of des-acyl ghrelin and its derivatives on BrdU incorporation.
After the end of incubation, the cells were recovered and using Cell Proliferation ELISA Kit (Roche Diagnostic GmbH, Mannheim, Germany), the amount of BrdU incorporation into the cells was measured to investigate the action for proliferating the spinal neuronal cells.

[7] = system: rat models with injured spinal cord; assay: Grafting of spinal neuronal cells and local administration of des-acyl ghrelin to rat models with injured spinal cord, frequency of standing up; assay type: in vivo; settings: for frequency of a rat standing up per unit time: 3-minute observation
Procedure: In accordance with the procedure described in Morino, T. et al, Neuroscience Research, 2003, vol. 46, pp 309-318, the grafting of spinal neuronal cells and local administration of des-acyl ghrelin to rat models with injured spinal cord were assessed. Male SD rats (8 to 9 weeks old) were anesthetized with pentobarbital and incised in the back to expose a vertebra ([…]). After excising the vertebral arch, a dental drill was used to open a window with a diameter of […], and a stainless steel needle with a silicone rubber fixed thereto was applied vertically, followed by loading of the top with a 20-g weight. Following a compression time of 30 minutes, a damaging drop equivalent to a weight of about 100 g was finally applied from above to construct models suffering a movement disorder in the lower limbs. The animals were divided into three groups: 1) a group under sham operation; 2) a control group with injured spinal cord; and 3) a group with injured spinal cord, treated by cell grafting, and locally administered with des-acyl ghrelin. The group under sham operation received laminectomy but was simply sutured in the muscle and skin thereafter. After injuring the spinal cord, cultured spinal neuronal cells (10^5 cells/25 µL) were grafted subdurally. Rat des-acyl ghrelin was administered subdurally in an amount of 1 nmol together with the cells.
Twenty-four hours after the operation, the rats were transferred into a see-through cage and observed for the frequency of their standing up (by 3-minute observation). The principal item of observation was the frequency per unit time of the rat standing up (in such a posture that it lifted the upper limbs and supported the body weight only with the lower limbs) was counted to assess the function of its hind limbs.

Bmax (fmol/mg protein) [1]: 8.79
Substance: [^125I]-labelled des-acyl ghrelin (peptide)

IC50 [2]: 23.5 nM
Substance: unlabelled des-acyl ghrelin (peptide)

concentrations at which the binding of the labeled des-acyl ghrelin was displaced [3]: ≥ 10^-3 M | IC50 ([3]; 4 °C for an hour): 23.5 nM
Substance: Des-acyl ghrelin
concentration that could increase the BrdU incorporation into the cells [4]: ≥ 3 nM | BrdU incorporation [5]: increased | number of cells that incorporated BrdU [5]: increased | BrdU incorporation into the cells (in words) ([6]; 0.03 to 3 nM): increased | BrdU incorporation into the cells, Mean ([6]; Concentration 0.03 nM): 113.6 | BrdU incorporation into the cells, Mean ([6]; Concentration 0.3 nM): 112.6 | BrdU incorporation into the cells, Mean ([6]; Concentration 3 nM): 108.2 | frequency of a rat standing up per unit time ([7]; 24 hours after operation, 1 nmol subdurally together with grafted cells (10^5 cells/25 µL)): 8.0 ± 0.0 | frequency of a rat standing up per unit time ([7]; Initial (before operation)): 15.0 ± 2.0 | frequency of standing up (in words) ([7]; combination of cell grafting and local administration, 24 hours after operation): recovery
